From patent US20190374506A1, “COMPOSITIONS AND METHODS FOR TREATING CANCER” (BETH ISREAL DEACONESS MEDICAL CENTER, priority 2016, published 2019)

Assays:
[1] = tested on: PTEN/AKT pathway in DU145 cells (PTEN competent); test: Western blot analysis of PTEN/AKT pathway in DU145 cells; assay type: cell-based, human; conditions: different doses of I3C for 3 Days
Method: FIG. 11B provides an analysis of effects of I3C on PTEN/AKT pathway in DU145 or PC3 cells by western blot analysis. Cells were treated with different doses of I3C for 3 Days, and followed by western blot analysis. Whether targeting WWP1/NEDD4-1, thereby enhancing PTEN dimerization and function, could offer a unique opportunity to treat MYC-driven cancers was investigated. […] As there is no small pharmacological inhibitor currently available to suppress/inhibit WWP1 activity, Indole-3-Carbinol (I3C), a potential WWP1 inhibitor, which suppresses the WWP1 activity through binding to its HECT domain, was used. First, to assess the on-target effects of I3C towards WWP1, Wwp1^−/− MEFs were used. […] Additionally, two independent PTEN stably knocked-down cells were generated. […] Western Blotting and Immunoprecipitation. For western blotting, cells were lysed in RIPA buffer (Boston BioProducts) supplemented with protease (Roche) and phosphatase (Roche) inhibitor. Proteins were separated on NuPAGE 4-12% Bis-Tris gradient gels (Invitrogen), transferred to polyvinylidine difluoride membranes (Immobilon P, Millipore) and the blots were probed with the indicated antibodies. For immunoprecipitation, PC3, 293T and MEF cells were transfected with the indicated expression vectors by using LIPOFECTAMIN 2000 (Life Technologies). 24 hours after transfection, cells were lysed in RIPA buffer with protease (Roche) and phosphatase (Roche) inhibitor. 500 μg of total lysates were pre-cleared for 30 minutes at 4° C., and then immunoprecipitated with anti-Myc (Cell Signaling Technology 9B11, 1:500), or anti-PTEN (Cell Signaling Technology 9559, 1:500) antibody overnight at 4° C. The Protein-A or Protein-G sepharose beads (GE Healthcare) were then added and incubated for another 2 hours. The immunoprecipitates were washed with RIPA buffer three times. In denaturing conditions, standard Laemmli-Buffer with 5% final concentration of β-mercaptoethanol was added to the samples, which were then boiled and separated on NuPAGE 4-12% Bis-Tris gradient gels (Invitrogen). […]

[2] = tested on: DU145 cells with PTEN depletion; test: Growth curves, MTT assay, DU145 cells with stable PTEN shRNA knockdown; assay type: cell-based, human; conditions: two independent PTEN shRNAs, various doses of I3C for 5 Days
Source text: FIG. 11D provides growth curves of DU145 cells, stably expressing vector control or two independent shRNAs, treated with various doses of I3C for 5 Days, and then assayed with colorimetric MTT assay (three experiments). Whether targeting WWP1/NEDD4-1, thereby enhancing PTEN dimerization and function, could offer a unique opportunity to treat MYC-driven cancers was investigated. […] As there is no small pharmacological inhibitor currently available to suppress/inhibit WWP1 activity, Indole-3-Carbinol (I3C), a potential WWP1 inhibitor, which suppresses the WWP1 activity through binding to its HECT domain, was used. First, to assess the on-target effects of I3C towards WWP1, Wwp1^−/− MEFs were used. […] Additionally, two independent PTEN stably knocked-down cells were generated.

Hi-Myc mouse prostates = test: Preclinical study of I3C in Hi-Myc mice (prostate cancer); assay type: in vivo
Method: FIGS. 12A and 12B show hematoxylin and eosin (H&E) staining of mouse prostate and gross anatomy of representative Hi-Myc urogenital tract. Quantification of percentage of normal epithelium in Hi-Myc mice treated with vehicle or I3C at 6 months as shown in (A) (right). The mice at 5 months of age were treated I.P. with I3C (20 mg/kg), three times a week for 1 month starting on day zero. (n=4 per genotype) scale bar, […].
FIG. 12C provides a Western blot analysis of dorsal lateral prostate (DLP) lysates from Hi-Myc mice as in (A).
The boxed areas are enlarged three fold to show the subcellular localization of PTEN on the right. Arrow indicates the PTEN plasma membrane localization. Bar, 50 μm.
To examine the functional relevance of the WWP1/NEDD4-1/PTEN crosstalk in vivo, preclinical studies with I3C in Hi-Myc mice were performed. The expression of Hi-Myc in mouse prostate results in complete penetrance of prostatic intraepithelial neoplasia (PIN) and progresses into invasive adenocarcinoma within 5 to 12 months of age. To this end, cohorts of Hi-Myc mice at 5 months of age were treated with either the vehicle or I3C for one month.
The Beth Israel Deaconess Medical Center IACUC Committee on Animal Research approved all animal experiments. The transgenic mice used in these studies (Hi-Myc-mice), in which the prostate specific expression of human c-Myc is driven by the rat probasin promoter with two androgen response elements, were obtained from the Mouse Repository of National Cancer Institute. 9 mice per genotype were randomly chosen and used to examine the tumour at the indicated age. Wwp1−/−mice and its paired Wwp1+/+ mice (on a C57/BL6 background) were obtained from Dr. L. Matesic (University of South Carolina, Columbia, SC, USA) (Shu et al., 2013). The pathologist determined the histological grade blindly.
The mice were treated I.P. with I3C dissolved in 5% DMSO (20 mg/kg), three times a week for […] starting on day zero. I.P. administration allows I3C to achieve maximal systemic exposure.

NEDD4-1 = conditions: previous study (Aronchik et al., 2014); read-out: calculated equilibrium dissociation constant (Kd) with NEDD4-1; cited from earlier work
[3] = literature statement; cited from earlier work
[4] = Hi-Myc mice, I3C 20 mg/kg I.P., western blot

**Q.** With OCc1c[nH]c2ccccc12 [I3C, indole-3-carbinol] as the compound, how does the AKT activation [1] read?
**A.** Its AKT activation is “dose-dependent AKT suppression”.

**Q.** What about the PTEN protein level [1] of the same compound?
**A.** The PTEN protein level was “without affecting PTEN protein level”.

**Q.** And the apoptosis [1]?
**A.** The apoptosis was “concomitant induction of apoptosis”.

**Q.** And the “sensitivity of cells with PTEN depletion compared to control cells” value [2]?
**A.** Its value is “exhibited resistance”.

**Q.** And the “tumor size, DLP and AP” value (Hi-Myc mouse prostates; Hi-Myc mice 5 months of age, I3C 20 mg/kg I.P. three times a week for 1 month, dorsal lateral and anterior prostate)?
**A.** The value was “significantly reduced tumor size”.

**Q.** What about the “tumor size, VP” value (Hi-Myc mouse prostates; Hi-Myc mice, I3C 20 mg/kg I.P. three times a week for 1 month, ventral prostate) of the same compound?
**A.** Its value is “less prominently”.

**Q.** And the “PTEN plasma membrane localization in prostate epithelial cells (IHC, DLP tissue)” value (Hi-Myc mouse prostates; Hi-Myc mice, I3C 20 mg/kg I.P., compared to vehicle)?
**A.** Its value is “induced intense PTEN plasma membrane accumulation”.

**Q.** What about the “histology of APs” value (Hi-Myc mouse prostates; Hi-Myc mice, I3C 20 mg/kg I.P., anterior prostate, H&E) of the same compound?
**A.** Its value is “completely disease-free”.

**Q.** What about the “histology of DLPs: penetrance of invasive carcinoma” value (Hi-Myc mouse prostates; Hi-Myc mice, I3C 20 mg/kg I.P., dorsal lateral prostate, H&E) of the same compound?
**A.** The value was “significantly lower penetrance”.

**Q.** What about the “AKT activation in prostate lysates, AP and DLP” value (Hi-Myc mouse prostates; [4]) of the same compound?
**A.** The value was “robustly inhibited AKT activation”.

**Q.** And the “PTEN protein level in prostate lysates” value (Hi-Myc mouse prostates; [4])?
**A.** The value was “without affecting PTEN protein level”.

**Q.** And the Kd (NEDD4-1)?
**A.** Its Kd is roughly 88.1 µM.

**Q.** And the toxicity [3]?
**A.** The toxicity was “negligible toxicity”.
